Laboratory results taken from publication PMC10111164, “Artemis inhibition as a therapeutic strategy for acute lymphoblastic leukemia” (Frontiers in Cell and Developmental Biology, 2023).
pIC50: −log10 of the molar value.

Legend:
[1] = tested on: Primary patient-derived B-ALL cells (BLQ5, LAX56, and LAX7R); assay: Proliferation of GFP-labeled B-ALL cells on OP9 cells (Incucyte green fluorescence); format: cell-based, human
Procedure: (§1) Lentivirally green fluorescence protein (GFP) labeled patient-derived B-ALL cells (LAX56, BLQ5, LAX7R) or mature B cell lines 3301015 and 5680001 were plated on irradiated murine stromal OP9 cells and treated with four compounds optimized for Artemis inhibition (827171, 827032, 826941, 825226) (provided by Curia Global Inc., as part of the NCI NExT Program). These compounds ranged in KD binding affinity to Artemis from 20 to 150 nM. […] Proliferation was determined by measuring the green fluorescence intensity per image (9 images were captured per well) by Incucyte every 8 h for 3 days. Raw values were normalized to the zero-time DMSO control. On day 3, viability of the treated cells was determined by annexin V/DAPI staining via flow cytometry.
Based on these viability studies, we next tested the compounds for their effect on proliferation. […] Ideally, normal B-cell lines would continue to proliferate upon Artemis inhibition and only B-ALL cell lines would be inhibited due to chromosome breaks. […] Increasing green fluorescence intensity is indicative of proliferation as measured by Incucyte every 8 h. […]
Primary B-ALL cells (BLQ5, LAX56, and LAX7R) were transduced with GFP, and 100,000 cells were plated in 24-well plates seeded with irradiated OP9 cells. […] Green fluorescence intensity was measured by Incucyte every 8 h. […]

[2] = tested on: Normal mature B cell lines 3301015 and 5680001; assay: Viability of normal mature B cell lines by annexin V/DAPI flow cytometry, day 3; format: cell-based, human; settings: one or both B-cell lines, 1–20 μM, 3 days
Procedure: Normal mature human B cell lines, immortalized lymphoblastoid cell lines 3301015 and 5680001, were generated using EBV-transformation of peripheral blood from patients with no hematopoietic abnormalities.
as §1
FIGURE 4 Artemis inhibitors and DNA-PK inhibitors effect on viability of normal mature B cell lines. […] On day three, mature B cells were collected and used for flow cytometry analysis with PE Annexin V and DAPI to measure % viability (PE Annexin V-/DAPI-). The % viability (Ann V-/DAPI-) is depicted. […]

[3] = tested on: patient-derived B-ALL cells (BLQ5, LAX56 and LAX7R); assay: Viability of B-ALL cells by annexin V/DAPI flow cytometry, day 3; format: cell-based, human; settings: all three B-ALL cells (BLQ5, LAX56, LAX7R), 3 days
Procedure: as §1
On day three, primary B-ALL cells were collected and used for flow cytometry analysis with PE Annexin V and DAPI to measure % viability (PE Annexin V-/DAPI-). The statistical analysis of viability differences is compared to DMSO control: ns: non-significant; *p < 0.05; **p < 0.001; ***p < 0.0001, one-way ANOVA.

[4] = tested on: Mature B cell lines (3301015 and 5680001); assay: Proliferation of GFP-labeled mature B cell lines on OP9 cells (Incucyte green fluorescence); format: cell-based, human
Procedure: as §1
Based on these viability studies, we next tested the compounds for their effect on proliferation. […] Ideally, normal B-cell lines would continue to proliferate upon Artemis inhibition and only B-ALL cell lines would be inhibited due to chromosome breaks. Primary patient-derived B-ALL cells (BLQ5, LAX56, and LAX7R) were transduced with GFP and 100,000 cells were plated in 24-well plates seeded with irradiated OP9 cells. Increasing green fluorescence intensity is indicative of proliferation as measured by Incucyte every 8 h. […] The mature B cell line proliferation is slow enough that it appears relatively flat in the proliferation assays, but the cells do increase in number (Supplementary Figure S2). Compared to B-ALL cells which grow as single cells (Supplementary Figure S3A–F), the mature B-cell lines grow in clusters and the measurement of total intensity per image is a potential caveat and may not capture this growth (Supplementary Figure S3G–J).
Mature B cell lines (3301015 and 5680001) were transduced with GFP, and 100,000 cells were plated in 24-well plates seeded with irradiated OP9 cells. […] Green fluorescence intensity was measured by Incucyte every 8 h. Raw values were normalized to the 0 h DMSO control. The dashed lines indicate the mean of the final time point measurements of the DMSO control for each mature B cell line.

[5] = molecular target: T1, purified full-length human Artemis with DNA-PKcs (Homo sapiens, UniProt Q96SD1); assay: Biochemical Artemis catalytic activity assay (FAM hairpin DNA cleavage, fluorescence)
T1 construct: Artemis activity assay was developed using full length Artemis with DNA-PKcs; made in house
T1 sequence (Q96SD1 whole entry): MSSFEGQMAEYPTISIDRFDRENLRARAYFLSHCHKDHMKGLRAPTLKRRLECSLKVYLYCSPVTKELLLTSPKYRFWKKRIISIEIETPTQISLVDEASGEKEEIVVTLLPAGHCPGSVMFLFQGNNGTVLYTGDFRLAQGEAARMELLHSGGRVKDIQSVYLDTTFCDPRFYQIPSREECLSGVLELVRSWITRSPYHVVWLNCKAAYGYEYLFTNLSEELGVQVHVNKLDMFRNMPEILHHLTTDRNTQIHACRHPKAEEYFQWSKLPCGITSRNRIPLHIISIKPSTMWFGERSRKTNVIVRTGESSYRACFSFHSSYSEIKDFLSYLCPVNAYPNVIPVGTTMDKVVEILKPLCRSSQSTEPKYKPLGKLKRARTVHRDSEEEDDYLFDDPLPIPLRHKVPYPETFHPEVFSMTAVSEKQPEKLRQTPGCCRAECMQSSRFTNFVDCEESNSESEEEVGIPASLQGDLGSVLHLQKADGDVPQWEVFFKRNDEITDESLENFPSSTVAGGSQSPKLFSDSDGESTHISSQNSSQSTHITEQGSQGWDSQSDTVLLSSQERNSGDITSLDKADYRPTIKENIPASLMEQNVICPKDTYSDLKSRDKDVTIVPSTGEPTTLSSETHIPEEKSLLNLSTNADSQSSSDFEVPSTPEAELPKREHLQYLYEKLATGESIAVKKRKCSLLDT
T1 sequence (P78527 whole entry partner): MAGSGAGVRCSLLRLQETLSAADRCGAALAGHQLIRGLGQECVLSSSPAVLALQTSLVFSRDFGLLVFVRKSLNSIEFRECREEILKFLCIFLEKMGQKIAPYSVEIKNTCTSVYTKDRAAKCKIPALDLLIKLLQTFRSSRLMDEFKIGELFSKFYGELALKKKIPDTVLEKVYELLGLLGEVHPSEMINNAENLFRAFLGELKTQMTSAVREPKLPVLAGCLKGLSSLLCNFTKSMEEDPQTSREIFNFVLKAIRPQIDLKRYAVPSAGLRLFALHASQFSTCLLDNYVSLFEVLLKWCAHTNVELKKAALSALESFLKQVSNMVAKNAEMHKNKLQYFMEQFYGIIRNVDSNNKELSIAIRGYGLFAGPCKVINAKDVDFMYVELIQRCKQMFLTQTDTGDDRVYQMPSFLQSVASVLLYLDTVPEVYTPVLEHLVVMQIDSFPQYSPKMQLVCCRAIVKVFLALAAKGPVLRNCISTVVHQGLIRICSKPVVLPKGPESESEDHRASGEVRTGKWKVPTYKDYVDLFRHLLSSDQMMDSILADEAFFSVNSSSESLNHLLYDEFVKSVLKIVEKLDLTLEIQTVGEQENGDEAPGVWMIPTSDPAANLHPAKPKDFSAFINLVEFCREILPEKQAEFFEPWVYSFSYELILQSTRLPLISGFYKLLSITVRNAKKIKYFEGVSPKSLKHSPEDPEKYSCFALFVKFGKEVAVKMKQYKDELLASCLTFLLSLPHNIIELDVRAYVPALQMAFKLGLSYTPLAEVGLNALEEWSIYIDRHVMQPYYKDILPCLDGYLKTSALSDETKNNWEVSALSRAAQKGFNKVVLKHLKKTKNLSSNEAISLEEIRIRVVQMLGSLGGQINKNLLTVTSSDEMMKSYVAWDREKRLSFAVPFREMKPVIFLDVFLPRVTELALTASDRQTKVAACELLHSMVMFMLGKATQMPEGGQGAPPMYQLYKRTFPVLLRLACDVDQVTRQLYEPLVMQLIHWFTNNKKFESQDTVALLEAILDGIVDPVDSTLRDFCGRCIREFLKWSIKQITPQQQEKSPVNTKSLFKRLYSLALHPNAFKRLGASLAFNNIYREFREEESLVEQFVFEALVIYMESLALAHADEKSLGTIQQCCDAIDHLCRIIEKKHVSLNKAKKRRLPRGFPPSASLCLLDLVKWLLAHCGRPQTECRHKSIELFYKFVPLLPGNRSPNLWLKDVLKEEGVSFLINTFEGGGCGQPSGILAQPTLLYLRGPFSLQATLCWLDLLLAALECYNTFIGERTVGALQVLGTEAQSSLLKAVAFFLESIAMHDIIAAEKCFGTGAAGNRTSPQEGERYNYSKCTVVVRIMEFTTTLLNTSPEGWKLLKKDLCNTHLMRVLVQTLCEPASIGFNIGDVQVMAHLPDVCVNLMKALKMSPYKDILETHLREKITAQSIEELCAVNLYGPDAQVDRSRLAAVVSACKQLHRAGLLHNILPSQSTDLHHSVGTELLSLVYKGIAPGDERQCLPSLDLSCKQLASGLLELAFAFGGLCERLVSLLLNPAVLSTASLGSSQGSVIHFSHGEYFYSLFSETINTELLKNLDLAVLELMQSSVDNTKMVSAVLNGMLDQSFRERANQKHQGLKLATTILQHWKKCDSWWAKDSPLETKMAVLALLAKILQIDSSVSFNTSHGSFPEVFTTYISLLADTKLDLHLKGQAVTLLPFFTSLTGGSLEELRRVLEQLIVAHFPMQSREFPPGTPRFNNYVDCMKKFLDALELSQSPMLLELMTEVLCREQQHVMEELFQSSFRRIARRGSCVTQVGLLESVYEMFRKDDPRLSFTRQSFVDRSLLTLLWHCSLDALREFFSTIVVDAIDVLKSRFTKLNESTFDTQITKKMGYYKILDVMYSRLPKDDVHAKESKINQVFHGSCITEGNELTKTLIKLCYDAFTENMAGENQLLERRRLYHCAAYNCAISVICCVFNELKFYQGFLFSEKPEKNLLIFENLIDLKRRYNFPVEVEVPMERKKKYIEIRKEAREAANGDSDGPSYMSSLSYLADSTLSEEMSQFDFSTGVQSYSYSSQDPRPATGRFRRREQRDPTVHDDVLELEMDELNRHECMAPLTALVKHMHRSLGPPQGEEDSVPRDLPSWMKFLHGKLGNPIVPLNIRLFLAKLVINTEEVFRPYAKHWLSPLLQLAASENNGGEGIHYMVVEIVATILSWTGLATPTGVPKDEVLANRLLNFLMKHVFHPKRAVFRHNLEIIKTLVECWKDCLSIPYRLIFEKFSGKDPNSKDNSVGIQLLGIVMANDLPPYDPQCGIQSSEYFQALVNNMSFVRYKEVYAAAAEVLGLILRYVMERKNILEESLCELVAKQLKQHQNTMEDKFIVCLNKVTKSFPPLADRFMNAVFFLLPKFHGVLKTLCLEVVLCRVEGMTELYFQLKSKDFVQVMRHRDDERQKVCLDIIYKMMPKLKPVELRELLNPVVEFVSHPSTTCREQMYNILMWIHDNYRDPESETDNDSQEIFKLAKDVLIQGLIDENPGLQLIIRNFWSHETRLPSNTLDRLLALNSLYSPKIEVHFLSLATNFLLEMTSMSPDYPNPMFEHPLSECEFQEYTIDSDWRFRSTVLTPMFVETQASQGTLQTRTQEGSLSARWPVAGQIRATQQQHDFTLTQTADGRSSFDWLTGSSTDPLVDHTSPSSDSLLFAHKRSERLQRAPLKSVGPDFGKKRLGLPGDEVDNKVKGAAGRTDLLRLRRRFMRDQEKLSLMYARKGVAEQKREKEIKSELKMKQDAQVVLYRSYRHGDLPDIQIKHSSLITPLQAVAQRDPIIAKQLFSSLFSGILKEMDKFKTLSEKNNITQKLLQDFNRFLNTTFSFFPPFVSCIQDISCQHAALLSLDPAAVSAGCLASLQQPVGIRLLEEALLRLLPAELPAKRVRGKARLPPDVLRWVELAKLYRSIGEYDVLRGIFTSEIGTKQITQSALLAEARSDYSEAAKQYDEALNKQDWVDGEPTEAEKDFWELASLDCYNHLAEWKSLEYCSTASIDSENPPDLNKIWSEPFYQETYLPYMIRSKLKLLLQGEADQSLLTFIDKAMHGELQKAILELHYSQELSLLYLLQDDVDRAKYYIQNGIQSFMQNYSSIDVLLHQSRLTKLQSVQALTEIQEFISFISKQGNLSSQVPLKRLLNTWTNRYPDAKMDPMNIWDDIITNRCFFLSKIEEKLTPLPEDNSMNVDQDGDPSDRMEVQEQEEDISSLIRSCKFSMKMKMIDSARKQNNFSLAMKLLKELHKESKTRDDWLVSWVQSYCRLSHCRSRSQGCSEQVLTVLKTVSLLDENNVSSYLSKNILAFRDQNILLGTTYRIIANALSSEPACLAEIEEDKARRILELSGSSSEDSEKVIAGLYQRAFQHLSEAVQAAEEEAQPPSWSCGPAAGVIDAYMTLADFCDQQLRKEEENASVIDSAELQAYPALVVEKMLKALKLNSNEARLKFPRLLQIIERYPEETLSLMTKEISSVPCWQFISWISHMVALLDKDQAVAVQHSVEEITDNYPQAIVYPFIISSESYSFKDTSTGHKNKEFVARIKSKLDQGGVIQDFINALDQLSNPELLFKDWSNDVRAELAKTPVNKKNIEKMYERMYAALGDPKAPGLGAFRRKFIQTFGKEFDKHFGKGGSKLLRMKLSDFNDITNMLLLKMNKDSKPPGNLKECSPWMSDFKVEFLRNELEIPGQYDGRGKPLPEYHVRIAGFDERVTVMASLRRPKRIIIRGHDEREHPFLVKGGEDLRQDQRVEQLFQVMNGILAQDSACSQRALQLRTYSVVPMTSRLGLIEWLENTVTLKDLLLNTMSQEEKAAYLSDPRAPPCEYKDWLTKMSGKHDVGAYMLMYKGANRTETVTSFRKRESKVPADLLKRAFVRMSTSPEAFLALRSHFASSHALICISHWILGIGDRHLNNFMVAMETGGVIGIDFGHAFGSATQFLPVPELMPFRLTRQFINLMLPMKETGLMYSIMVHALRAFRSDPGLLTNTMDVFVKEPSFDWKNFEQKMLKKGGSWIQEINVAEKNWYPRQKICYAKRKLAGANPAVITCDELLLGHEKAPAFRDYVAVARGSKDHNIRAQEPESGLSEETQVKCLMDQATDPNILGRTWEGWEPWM
Procedure: Artemis activity assay was developed using full length Artemis with DNA-PKcs to generate a fluorescent signal from the cleavage of the 5′ 6-FAM modified end of hairpin DNA with a black-hole quencher (3-BHQ) on the 3’ end. The assay buffer used was 25 mM MOPS, pH 7.5, 10 mM MgCl2, 10 mM KCl, 10 μM ATP, 1 mM DTT, 0.05% (w/v) CHAPS with 5 nM FL-Artemis, 5 nM DNA-PKcs, and 200 nM DNA FAM hairpin substrate. The fluorescence signal was monitored kinetically on a Perkin Elmer Envision microplate reader with FITC filters (λ ex = 485 nm, λ em = 520 nm) with 1-min reads for 40 min.
We determined the specificity of the four Artemis inhibiting compounds using a biochemical Artemis activity assay which generates a fluorescent signal from the cleavage of the 5′ 6-FAM modified end of hairpin DNA with a black-hole quencher (3-BHQ) on the 3’ end.
Steps 1, 2, and 3 show the fluorescence assay for cutting of the DNA hairpin substrate by Artems:DNA-Kcs. Artemis activity assay was optimized for development of a fluorescent signal from the cleavage of the 6-FAM modified end of hairpin DNA (to release it from proximity to the BHQ quenching) and monitored kinetically on a Perkin Elmer Envision microplate reader with FITC filters (excitation wavelength = 485 nm, emission wavelength = 520 nm). […]

Row | SMILES | proliferation (normalized green fluorescence intensity) vs DMSO ([1]; B-ALL cell lines, 5 μM and 10 μM) | proliferation of the three B-ALL lines (Discussion summary) ([1]; three B-ALL lines, 827171 at 1, 5, and 10 µM) | viability (PE Annexin V-/DAPI-) [2] | viability (PE Annexin V-/DAPI-) compared to DMSO controls [3] | proliferation (normalized green fluorescence intensity) vs DMSO ([4]; 3301015, 5 μM and 10 µM) | proliferation (normalized green fluorescence intensity) vs DMSO [4]; 5680001 | proliferation (normalized green fluorescence intensity) vs DMSO ([4]; 5680001, 1 or 5 μM) | pIC50 ([5]; 5 nM FL-Artemis, 5 nM DNA-PKcs, 200 nM DNA FAM hairpin substrate, 10 μM ATP, 10-point concentration response) | %Inh at Max ([5]; percent inhibition at maximal tested concentration)
1 | Cc1cc2ncnn2cc1Nc1ncc2c(n1)n(C1CCOCC1)c(=O)n2C [AZD7648] | inhibited the proliferation | little inhibition | decrease viability of one or both B-cell lines | decrease in viability | suppressed proliferation | no significant decreases in proliferation | minor increase in proliferation |  | 
2 | COc1ccc([C@@H](O)c2cc(-c3ncnc4cc(N5CCOCC5)ccc34)c(F)cc2Cl)nn1 [M3814] |  |  |  |  |  |  |  | 8.52 | 90.2%
